Data on 8 compounds can be found in US20240285637A1, “PHOSPHODIESTERASE INHIBITORS FOR THE MITIGATION OF FRAGILE X SYNDROME SYMPTOMS” (THE ROYAL INSTITUTION FOR THE ADVANCEMENT OF …, priority 2021, published 2024).

The structures appear in SMILES notation. “Also recorded” adds a separate entry of the source.

Holding throughout (format): cell-based, mouse
Test [1] deals with cerebellar stellate cells. The test can be described thus: Cell-attached recordings of action currents (intrinsic plasticity) after HFS of parallel fibers. The settings on record: WT stellate cells, 10 μM APV, 25 minutes after HFS. The source says:
Cerebellum slice preparation: Mice (P21-35) were anesthetized with isoflurane and immediately decapitated. A block of cerebellar vermis was rapidly dissected from the mouse head and submerged in an ice-cold cutting solution perfused with carbogen gas (95% O2, 5% CO2). Cutting solution contains (in mM): 235 sucrose, 2.5 KCl, 1.25 NaH2PO4, 28 NaHCO3, 0.5 CaCl2, 7 MgCl2, 28 D-glucose, 1 ascorbic acid, and 3 sodium pyruvate (pH 7.4; 305-315 mOsmol/L). The block of vermis was then fastened to a platform, transferred to the slicing chamber and again submerged in ice-cold cutting solution, bubbled with carbogen throughout the remainder of the procedure. Thin slices of cerebellar vermis (300 μm) were obtained with a vibrating tissue sectioner (Leica VT1200; Leica Instruments, Nussloch, Germany). The slices were transferred to oxygenated artificial cerebrospinal fluid (ACSF) and held at room temperature (21° C.-23° C.) for at least 1 h before recordings were performed. […]
For extracellular stimulations, thin walled borosilicate glass electrodes (OD 1.65 mm, ID 1.15 mm; King Precision Glass Inc, Claremont, CA, USA) were used with a tip resistance of <3 MΩ when filled with ACSF. […] To minimize variability between responses, the stimulating electrode was positioned 50-100 μm away from the recorded cell. […]

Test [2] concerns cerebellar stellate cells. The test can be described thus: Minimal stimulation protocol, evoked IPSCs before and after HFS (failure rate of GABAergic transmission).
The test system of test [3] is blood vessels (capillaries) in the molecular layer of the cerebellum. The test can be described thus: Acute slice vascular reactivity, cerebellar vermis slices (U46619 constriction, NMDA dilation). Set-up: effect on the NMDA response (vasodilation) / vasodilation (direct action on blood vessels): dose or concentration left out as unconfirmed. The following applies: for vasodilation of pre-constricted blood vessels: NMDA 50 μM, 5 mins, after U46619.

For test [4], the system named is blood vessels in the somatosensory cortex. The experiment in a line: Acute slice vascular reactivity, somatosensory cortex. Set-up: effect on the NMDA response (vasodilation) / vasodilation (direct action on blood vessels): dose or concentration left out as unconfirmed. The following applies: for vasodilation of pre-constricted blood vessels: bath application of NMDA.

In test [5] the test system is middle or posterior cerebral arteries. The experiment in a line: Vascular reactivity of isolated pressurized cerebral arteries. The settings on record: various concentrations, extraluminal application. The protocol:
Vascular reactivity: Middle or posterior cerebral arteries were isolated from both WT (n=9) and Fmr1-KO (n=4) mice and vessel diameter was measured using video microscopy (Living Systems Instrumental, Burlington, VT) as previously described. Blood vessels were cannulated in a closed sac preparation in 1×KREBS buffer, and gradually pressurized to 60 mmHg. Vasoconstriction was measured in response to extraluminal application of either thromboxane A2 receptor agonist U46619, NMDA, or acetylcholine (ACh) at increasing concentrations (10-9 to 10-3 mol/L, Tocris Bioscience Ellisville, MO, USA). Data is presented as a percentage change from the basal diameter.

[6] abbreviates: Fmr1 KO stellate cells, 10 μM external MPEP, baseline, n=7.
Where [7] appears, read: Fmr1 KO stellate cells, 10 μM external MPEP, post-HFS, n=7.

With `N[C@H](CCCP(=O)(O)O)C(=O)O` [APV, (2R)-amino-5-phosphonovaleric acid], the “long-term increase in basal firing rates after HFS of PFs” value in test [1] is given as “no long-term increase; also recorded: no increase in action potential firing”. Moreover, the “decrease of failure rate post-HFS” value in test [2] (WT mice, in the presence of APV, data not shown) was about 5%.

`O=C(O)CN(CC(=O)O)c1ccccc1OCCOc1ccccc1N(CC(=O)O)CC(=O)O` [BAPTA, 1,2-bis(o-aminophenoxy)ethane-N,N,N′,N′-tetraacetic acid)]: in test [2] (WT mice, high BAPTA internal solution, data not shown), the “change of failure rate post-HFS” value is “did not change their failure rate”.

With `COc1ccc2c(c1)c(C1=C(c3c[nH]c4ccccc34)C(=O)NC1=O)cn2CCCN(C)C` [Gö6983], in test [2] (WT mice, kinase (PKC) inhibitor), the “change of failure rate from baseline to post-HFS” value was “did not change”.

In the case of `Cc1cccc(C#Cc2ccccc2)n1` [MPEP, 2-Methyl-6-(phenylethynyl)-pyridine], the “onset of iLTD” value in test [2] (Fmr1 KO stellate cells, 10 μM MPEP) is recorded as “prevents the onset of iLTD”. Also, in test [2] (setting [6]), the “failure rate of GABAergic transmission (mean)” value is 77.21+/−3.75% and the “time latency of synaptic events (mean)” value is 2.78 ± 0.24 ms. In test [2] (setting [7]), the “failure rate of GABA-evoked events (mean)” value was 79.98+/−4.58% and the “time latency of synaptic events (mean)” value was determined as 2.32 ± 0.29 ms. Further, in test [2] (α3 KO mice, MPEP, data not shown), the “change of failure rate after HFS protocol” value is given as “slightly decreased their failure rate”.

`CN[C@H](CC(=O)O)C(=O)O` [NMDA, N-methyl-D-aspartate]: the “vasodilation of pre-constricted blood vessels” value was “failed to promote blood vessel dilation; also recorded: failed to induce vasodilation” in test [3] (Fmr1 KO cerebellar slices), “caused vasodilation; also recorded: robust vasodilation” in test [3] (WT cerebellar slices), “failed to induce vasodilation” in test [4] (Fmr1 KO cortex) and “robust vasodilation” in test [4] (wildtype cortical blood vessels).

In the case of `CCCCC[C@H](O)/C=C/[C@@H]1[C@@H](C/C=C\CCCC(=O)O)[C@H]2CO[C@@H]1C2` [U46619], the “vasoconstriction of MCA/PCA, Fmr1 KO compared to WT” value in test [5] was “reduced”. For the same compound, the “frequency of blood vessel constriction, Fmr1 KO brain slices compared to WT” value in test [3] (75 nM) is reported as “much less frequently”. Further, in test [3] (150 nM), the “vasoconstriction, Fmr1 KO brain slices compared to WT” value was “reduced vasoconstriction”. For the same compound, the “blood vessels with no response (no constriction), number” value in test [3] (Fmr1 KO mice, [U46619] 75 nM) is recorded as 2; in test [3] (Fmr1 KO mice, [U46619] 150 nM), 11; in test [3] (WT mice, [U46619] 75 nM) it was 3; in test [3] (WT mice, [U46619] 150 nM), 2. Besides, the “blood vessels with response (constricted), number” value is given as 8 in test [3] (Fmr1 KO mice, [U46619] 75 nM); 25 in test [3] (Fmr1 KO mice, [U46619] 150 nM); 10 in test [3] (WT mice, [U46619] 75 nM); 18 in test [3] (WT mice, [U46619] 150 nM). For the same compound, the “proportion of blood vessels that constricted” value is 80% in test [3] (Fmr1 KO mice, [U46619] 75 nM); 69% in test [3] (Fmr1 KO mice, [U46619] 150 nM); 77% in test [3] (WT mice, [U46619] 75 nM); 90% in test [3] (WT mice, [U46619] 150 nM). The “ability to vasoconstrict blood vessels, WT vs Fmr1 KO in all the conditions” value in test [3] (cerebellum (FIG. 5N)) and in test [4] (cortex (FIG. 5O)) was “similar” in each case.

Turning to `COc1ccc(Cc2nccc3cc(OC)c(OC)cc23)cc1OC` [papaverine], the “vasodilation (direct action on blood vessels)” value in test [3] (Fmr1 KO cerebellum) and in test [4] (Fmr1 KO cortex) was “able to induce vasodilation” in each case.

As for `NC1=N[C@H](O)[C@H]2[C@H]3O[C@]4(O)O[C@@H]([C@@H](O)[C@@]2(N1)[C@@H]4O)[C@]3(O)CO` [tetrodotoxin], the “effect on NMDA-induced vasodilation” value in test [3] is “completely blocked vasodilation”; in test [4], “blocked”.
